The text below walks through data of patent US10869929B2, “Phosphonate linkers and their use to facilitate cellular retention of compounds” (priority 2016, dated 2020).

The subject of one series is MDCKII cells. Briefly: Apparent permeability in MDCKII cells. The following applies: 1 μM, t=3 hr, average of A to B and B to A Papp. Type of series: in vitro ADME.
The test system of a further series is GILZ gene. The experiment in a line: GILZ gene assay (qPCR, HUT78 / 786-O cells). In kind it is cell-based. Particulars: for GILZ Max: at 10 uM; for EC50: read-out: GILZ EC50. In general terms: Quantitative PCR measures a nucleic acid by following its amplification.
The test system of the next series is ZBTB16 mRNA. The experiment in a line: Up-regulation of ZBTB16 mRNA in primary human B cells. Type of series: cell-based. The following applies: for EC50: B-cell, free payload. The method, then:
The carrier solution for all ADCs and naked antibodies was 50 mM histidine pH 6.0, 100 mM NaCl and 5% trehelose. To assure consistency across experiments, ADCs were thawed on ice, dispensed to small aliquots, frozen to −80° C., and those aliquots were then used for experiments with unused material discarded at the end of the day. For all in vitro studies in this report, none of the read outs were measurably different in the presence or absence of the carrier solution. Nevertheless, the final concentration of antibody carrier solution was maintained constant at 1% v/v by serially diluting antibody solution prior to addition to the assay mixture and adding carrier solution to control wells.
For the studies of ADCs bearing reduced permeability payloads frozen human CD19+ B cells purchased from Precision Biosciences (catalog #84400, donor #13108) were thawed and re-suspended in RPMI1640 plus 10% heat-inactivated FBS (cell culture medium) at 1 million cells/mL. […] B cells were bulk treated in a 96-well block and subsequently dispensed to 96 well plates (100 μL and […] cells per well) and incubated at 37° C., 5% CO2 for 18 or 40 hr. Control wells containing equal percentages of DMSO (0.1%) and ADC buffer (1%) as sample wells were included. Cells were transferred to a 96 well v-bottom plate and spun at 500×g for 5 min. Medium was removed and cells were lysed in 150 μL RLT buffer containing beta-mercaptoethanol. RNA was isolated (RNeasy 96 kit, Qiagen, Cat #74181) and cDNA was synthesized (iScript cDNA Synthesis Kit, BioRad, Cat #170-8891) according to the supplier's protocol. Quantitative PCR was performed on Applied Biosystem's 7900 HT Real-Time PCR System to measure expression of ZBTB16 (Life Technologies, Hs00957433_m1) and GAPDH (Life Technologies, Hs02758991_g1) in duplex format.
The ΔΔCt method was used to calculate fold change of expression of ZBTB16 relative to control sample, using 3 replicates per treatment condition. For free cell impermeable compounds, B cells were seeded at 100,000 cells/well in 90 μL in a 96-well flat bottom plate. Three fold serial dilutions were performed in DMSO, subsequent intermediate 10× stocks were made in tissue-culture medium and then added to the cell plate (10 μL/well). Cells were incubated at 37° C., 5% CO2 for 18 hr, harvested and processed for PCR as described above. EC50 curves were calculated using Graph Pad Prism 6 software using nonlinear fit (agonist) vs. response-variable slope (four parameters) calculation.
Potency and maximum activity of reduced permeability glucocorticoids (free payload) and the corresponding anti-CD74-drug conjugates on up-regulation of ZBTB16 mRNA levels in primary human B cells in vitro.

For a further series, the target named is glucocorticoid receptor (Homo sapiens (Human), UniProt P04150). The experiment in a line: PolarScreen Glucocorticoid Receptor Competitor Assay (GR binding). Particulars: fluormone GS red, GR full length protein; read-out: GR Bind IC50.
glucocorticoid receptor, sequence (P04150 whole entry): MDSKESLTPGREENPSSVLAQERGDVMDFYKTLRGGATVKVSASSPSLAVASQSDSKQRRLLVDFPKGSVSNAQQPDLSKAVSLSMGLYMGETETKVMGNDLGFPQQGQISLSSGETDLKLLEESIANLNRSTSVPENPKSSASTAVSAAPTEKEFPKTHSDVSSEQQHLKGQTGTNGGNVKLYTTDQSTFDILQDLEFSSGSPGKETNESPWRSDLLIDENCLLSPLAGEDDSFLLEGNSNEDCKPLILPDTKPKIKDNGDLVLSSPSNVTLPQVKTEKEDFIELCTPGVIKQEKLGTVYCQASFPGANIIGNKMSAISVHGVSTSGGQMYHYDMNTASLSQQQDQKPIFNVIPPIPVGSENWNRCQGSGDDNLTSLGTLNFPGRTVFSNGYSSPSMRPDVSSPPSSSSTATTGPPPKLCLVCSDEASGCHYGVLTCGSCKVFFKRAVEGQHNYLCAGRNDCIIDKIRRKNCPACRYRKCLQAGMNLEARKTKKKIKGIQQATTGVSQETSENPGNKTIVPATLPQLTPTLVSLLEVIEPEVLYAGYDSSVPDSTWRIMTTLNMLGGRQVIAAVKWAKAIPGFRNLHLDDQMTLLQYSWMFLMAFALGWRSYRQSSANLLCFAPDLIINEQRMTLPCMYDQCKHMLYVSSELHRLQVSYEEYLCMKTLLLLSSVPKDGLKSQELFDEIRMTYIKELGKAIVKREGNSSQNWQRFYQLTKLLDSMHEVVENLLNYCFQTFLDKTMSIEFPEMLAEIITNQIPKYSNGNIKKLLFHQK

By EC50 is commonly meant the concentration giving half of the maximal effect. By IC50 is commonly meant the concentration at which inhibition is half-maximal.

Molecules are shown by their SMILES.

Protocol for GILZ gene: GILZ gene assays were conducted as follows. HUT78 cells were cultured in IMEM plus 20% heat inactivated FBS and cell density was maintained between 0.1 to 1.2 million/mL. 786-O cells were cultured in RPMI plus 10% heat inactivated FBS. Actively growing cells were harvested and resuspended in HBSS with 2% FBS at 1.1 million cells per mL then dispensed to 384-well V-bottom plates at 45 μL per well. Serially diluted ADC solution was added to the cell plate (5 μL per well) and mixed for 2 min. Cells were then cultured at 37° C., at 5% CO2 for a designated time before supernatant was removed. Cells were harvested in lysis buffer from the Cells-to-Ct kit (40 μL, Life Technologies, 4391851C) following the supplier's protocol and mixed for 10 min followed by addition of 5 μL per well of stop solution from the kit. cDNA was synthesized with a reverse transcription kit (Life Technologies, 4391852C) follow by qPCR using the TaqMan gene expression master mix (Life Technologies, 4369016) with GILZ gene assay (Life Technologies, Hs00608272_m1) and GAPDH assay (Hs2758991_g1) in a duplex format with 3-4 technical replicates.
Protocol for MDCKII cells: Determination of apparent permeability was as follows. MDCKII cells (kindly provided by the Netherlands Cancer Institute, under a licensing agreement) were seeded on to 96-well transwell culture plates (Millipore Corp, Billerica, Mass.) and used in experiments after five days in culture. […] Substrate solution (150 μL) was added to either the apical (A) or the basolateral (B) compartment of the culture plate, and buffer (150 μL; HBSS, 10 mM HEPES, pH 7.4) with 10 μM cyclosporine A was added to the compartment opposite to that containing the substrate. At t=3 hr, 50 μL samples were removed from both sides of monolayers dosed with test compound and placed in 96 well plates, 50 μL internal standard (1 μM labetolol) and 100 μL HBSS was added to the samples. Samples were analyzed by LC/MS/MS using an Applied Biosystems SCIEX API 5000 triple quadruple mass spectrometer (Concord, ON, Canada) with a TurbolonSpray ion source in the positive ion mode. A Thermo Scientific Transcend LX-2 system (Franklin, Mass.) was coupled to the API 5000 with a flow rate of 800 μL/min to direct sample into the mass spectrometer.
Papp was expressed as 10^−6 cm/s.
Protocol for glucocorticoid receptor: The potency of binding to glucocorticoid receptor by small molecule compounds was measured with the PolarScreen™ Glucocorticoid Receptor Competitor Assay Kit, Red (Life Technology, Catalog #A15898) according to the procedure in the kit. In brief, after compounds were diluted and transferred into assay plates, the fluormone GS red and GR full length protein were subsequently added into the assay plates, along with the positive and negative controls. The samples were mixed on a shaker for 1 minute and then the plates were incubated at room temperature for 2-4 hours with minimal light exposure. The plates were read with an Envision and the relative fluorescent signals were calculated. The data were plotted in GraphPad Prism and the EC50 values were calculated with non-linear regression curve fit of the data in GraphPad Prism.

Take `CCC(=O)O[C@]1(C(=O)SCCCCCCCCCCP(=O)(O)O)[C@H](C)C[C@H]2[C@@H]3C[C@H](F)C4=CC(=O)C=C[C@]4(C)[C@@]3(F)[C@@H](O)C[C@@]21C` [Compound 3, (10-(((6S,8S,9R,10S,11S,13S,14S,16R,17R)-6,9-difluoro-11-hydroxy-10,13,16-trimethyl-3-oxo-17-(propionyloxy)-6,7,8,9,10,11,12,13,14,15,16,17-dodecahydro-3H-cyclopenta[a]phenanthrene-17-carbonyl)thio)decyl)phosphonic acid]: the “MDCK Permeability (cm × 10−6/sec)” value with MDCKII cells was determined as 1.04 cm × 10−6/sec. In addition, in the series on GILZ gene, the “GILZ Max” value is 71% (at and the EC50 was found to be 649 nM. Further, in the series with ZBTB16 mRNA, the “ZBTB16 mRNA Max relative to free fluticasone” value is reported as 75% and a half-maximal effect (EC50) was put at 1100 nM. Moreover, the IC50 on glucocorticoid receptor turned out to be 0.44 nM.

Turning to `C[C@@H]1C[C@H]2[C@@H]3C[C@H](F)C4=CC(=O)C=C[C@]4(C)[C@@]3(F)[C@@H](O)C[C@]2(C)[C@@]1(OC(=O)CCCCCCCCP(=O)(O)O)C(=O)SCF` [Compound 18, (9-(((6S,8S,9R,10S,11S,13S,14S,16R,17R)-6,9-difluoro-17-(((fluoromethyl)thio)carbonyl)-11-hydroxy-10,13,16-trimethyl-3-oxo-6,7,8,9,10,11,12,13,14,15,16,17-dodecahydro-3H-cyclopenta[a]phenanthren-17-yl)oxy)-9-oxononyl)phosphonic acid], the “MDCK Permeability (cm × 10−6/sec)” value in the series with MDCKII cells was less than 0.9 cm × 10−6/sec. Further, in the series with GILZ gene, the “GILZ Max” value is recorded as 65% (at and the EC50 stood at 3040 nM. For the same molecule, in the series with ZBTB16 mRNA, the “ZBTB16 mRNA Max relative to free fluticasone” value is more than 77% and a half-maximal response (EC50) required 3200 nM. Also, on glucocorticoid receptor, the IC50 was 0.1 nM.
